Test results published in US11261189B2, “Substituted 2,4 diamino-quinoline as new medicament for fibrosis, autophagy and cathepsins B (CTSB), L (CTSL) and D (CTSD) related diseases” (Genoscience Pharma, priority 2018, dated 2022).
Where a name gives a salt, the structure may show the parent alone.

Assays:
[1] = molecular target: T1, cathepsin B (CTSB) (Homo sapiens, UniProt P07858); assay: Cathepsin B (CTSB) catalytic activity in lysates of treated HepG2 cells (Z-RR-AMC substrate); format: cell-based; conditions: for CTSB activity versus NT: 6 hours of treatment
T1 construct: endogenous in cells; host or cells: HepG2
Experimental: (§1) Lysosomal functions was investigated in a hepatocellular carcinoma (HCC) cell line HepG2 after 6 hours and 24 hours of treatment with compound 2-3 (the hydrochloride salt form of compound 2-2) using functional assays of some lysosomal enzymes activity: two cysteine proteinases: cathepsin B (CTSB) and cathepsin L (CTSL), and one aspartic proteinase: cathepsin D (CTSD). Two sets of three concentrations of compound 2-3 (1 μM, 2 μM, and 4 μM for 6 hours, and 0.5 μM, 1 μM and 2 μM for 24 hours) were tested at least in triplicate and four independent experiments were performed. Salinomycin (7.5 μM for 6 hours and 24 hours) was used as a positive control.
(§2) The HepG2 cell line was maintained in DMEM (Dulbecco's Modified Eagle Media) high glucose (Cat #L0103-500, Dutscher) containing 1% penicillin-streptomycin (Cat #P06-07100, Dutscher) and 10% FBS (Fetal Bovine Serum) (Cat #11543407, Life Technologies). Cells were cultured at 37° C. with 5% CO2.
(§3) The day before the experiment, 6-well plates (Cat #353046, Dutscher) with 250,000 cells in 2.7 mL of medium per well were prepared.
(§4) Compound 2-3 was dissolved with filtrated H2O mQ to make a 10 mM stock solution and serial working solutions (10× solutions) were prepared with the diluent (=culture medium with 0.4% H2O mQ) at 5 μM, 10 μM, 20 μM and 40 μM: the “dilution 1” is made from the 10 mM stock solution in the culture medium and the following serial dilutions were made in the diluent to maintain a constant percentage of H2O.
Salinomycin [CAS 53003-10-4] was used as positive control and was dissolved with methanol to make a 10 mM stock solution and a 10× solution at 75 μM was prepared with the culture medium.
300 μL of compound 2-3 10× solutions (solutions at 10 μM, 20 μM and 40 μM for 6 hours of treatment and solutions at 5 μM, 10 μM and 20 μM for 24 hours of treatment) or 300 μL of diluent (=non-treated (NT) condition) or 300 μL of Salinomycin 10× solution were dispensed in the appropriate wells (4 wells/condition). After cells treatment, 6-well plates were returned to incubator for 6 hours or 24 hours.
After 6 hours or 24 hours of cells treatment, the medium was removed from each well. The cells were carefully rinsed with PBS (phosphate-buffered saline, Cat #L0615-500, Dutscher) and detached with 500 μL per well of a trypsin solution. After 5 min of trypsin (Cat #L0930-100, Dutscher) incubation at 37° C., 800 μL of medium was added per well and transferred to a 1.5 mL tube. Then, 800 μL of PBS was used to rinse each well and the corresponding solution was pooled in each corresponding 1.5 mL tube. […] Total protein concentration was assessed using the Bradford reagent (Cat #B6916-500ML, Sigma-Aldrich) and cellular lysates were stored at −80° C. until catalytic activity measurement. […]

[2] = molecular target: T2, cathepsin D (CTSD) (Homo sapiens, UniProt P07339); assay: Cathepsin D (CTSD) peptidase activity in lysates of treated HepG2 cells (MOCAc quenched fluorogenic substrate); format: cell-based
T2 construct: cell lysates (1 μg of total proteins) were pre-incubated with citrate buffer pH 4.0; endogenous in cells; host or cells: HepG2
Experimental: as §1, §2, §3, §4
Salinomycin [CAS 53003-10-4] was used as positive control and was dissolved with methanol to make a 10 mM stock solution and a 10× solution at 75 μM was prepared with the culture medium. […]
After 6 hours or 24 hours of cells treatment, the medium was removed from each well. […] Total protein concentration was assessed using the Bradford reagent (Cat #B6916-500ML, Sigma-Aldrich) and cellular lysates were stored at −80° C. until catalytic activity measurement. […]

T2 sequence (P07339 65-412): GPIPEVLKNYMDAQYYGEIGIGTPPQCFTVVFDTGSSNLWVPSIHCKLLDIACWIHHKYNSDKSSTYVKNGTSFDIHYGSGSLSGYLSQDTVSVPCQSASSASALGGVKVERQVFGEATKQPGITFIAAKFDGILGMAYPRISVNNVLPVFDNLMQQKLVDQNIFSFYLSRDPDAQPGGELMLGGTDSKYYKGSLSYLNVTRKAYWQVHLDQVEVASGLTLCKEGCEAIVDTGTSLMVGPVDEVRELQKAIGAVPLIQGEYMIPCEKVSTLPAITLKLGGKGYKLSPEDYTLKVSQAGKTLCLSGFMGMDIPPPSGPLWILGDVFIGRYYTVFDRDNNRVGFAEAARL

- CTSB activity versus NT ([1]; HepG2, 2 μM): 75.4%
- CTSB activity versus NT ([1]; HepG2, 4 μM): 54.0%
- inhibition of cathepsin B (CTSB) compare to the control ([1]; HepG2, 2 μM, 4 μM for 6 hours and 2 μM for 24 hours, p<0.05): statistically significant
- CTSD activity versus NT ([2]; HepG2, 4 μM, 6 hours of treatment): 60.6%
- inhibition of cathepsin D (CTSD) compare to the control ([2]; HepG2, 4 μM for 6 hours and 2 μM for 24 hours, p<0.05): statistically significant
Compound: CC(C)(C)NC1CCN(c2cc(NCc3ccc(Cl)cc3)nc3ccccc23)CC1 [2-3, 2-(4-chlorobenzylamino)-4-(4-tert-butylaminopiperidin-1-yl)-quinoline Hydrochloride Salt]
